These results are taken from DBAASP.

What all share (experiment): ≥ marks a high value that may be exact or a test limit, other limits are often not marked, values filed in µg/mL are converted to µM
Assay [1] relates to Pseudomonas aeruginosa PAO239.
Assay [2] concerns Pseudomonas aeruginosa ATCC 27853.
Assay [3] concerns Candida albicans NCTC 3179.
For assay [4], the system named is Escherichia coli ATCC 25922.
The subject of assay [5] is Staphylococcus aureus ATCC 25923.
For assay [6], the system named is Enterococcus faecalis NCTC 12697.
The test system of assay [7] is Fusobacterium nucleatum NCTC 10562.
Assay [8] deals with Escherichia coli ATCC 25726.
Assay [9] relates to Streptococcus mutans ATCC 10449.
The test system of assay [10] is Escherichia coli ATCC 8739.
Assay [11] deals with Acinetobacter baumannii ATCC BAA-747.
For assay [12], the system named is Pseudomonas aeruginosa CMCCB 10104.
For assay [13], the system named is Pseudomonas aeruginosa ATCC 9027.
In assay [14] the test system is Candida albicans ATCC 10231.
Assay [15] concerns Staphylococcus aureus NCTC 12493.
The subject of assay [16] is Enterococcus faecium NTCC 12697.
Assay [17] has as its system Staphylococcus aureus ATCC 6538.
In assay [18] the test system is Escherichia coli ATCC BAA-2340.
Assay [19] deals with Candida albicans ATCC 2002.
Assay [20] concerns Klebsiella pneumoniae ATCC 43816.
In assay [21] the test system is Escherichia coli NCTC 13846.
Assay [22] deals with Bacillus subtilis.
For assay [23], the system named is Candida albicans ATCC 90028.
The subject of assay [24] is Pseudomonas aeruginosa.
Assay [25] relates to Staphylococcus aureus.
Assay [26] has as its system Salmonella enterica subsp. enterica serovar Typhi.
The test system of assay [27] is Escherichia coli.
Assay [28] concerns Enterobacter cloacae.
For assay [29], the system named is Candida albicans ATCC 20032.
Assay [30] has as its system Bacillus subtilis ATCC 6633.
Assay [31] concerns Batrachochytrium dendrobatidis JEL-197.
Assay [32] has as its system Acinetobacter baumannii 2982.
Assay [33] relates to Staphylococcus aureus 725.
The test system of assay [34] is Escherichia coli 850.
Assay [35] concerns Acinetobacter baumannii ATCC 19606.
Assay [36] relates to Escherichia coli 780.
The test system of assay [37] is Acinetobacter baumannii 4956.
The test system of assay [38] is Pseudomonas aeruginosa 2760.
Assay [39] deals with Staphylococcus aureus 936.
The subject of assay [40] is Acinetobacter baumannii 1980.
In assay [41] the test system is Klebsiella pneumoniae ATCC 700603.
Assay [42] concerns Acinetobacter baumannii I NM8.
Assay [43] concerns Pseudomonas aeruginosa 9132.

≈ marks a conversion by molar mass, not a printed value.

What is called MIC is the smallest concentration in the dilution series that meets the test's criterion for growth inhibition. `CC[C@H](C)[C@H](NC(=O)CNC(=O)CNC(=O)[C@@H](NC(=O)[C@H](Cc1ccccc1)NC(=O)[C@H](C)NC(=O)[C@H](CCCCN)NC(=O)CNC(=O)[C@H](Cc1ccccc1)NC(=O)[C@H](CCCCN)NC(=O)CNC(=O)[C@H](CC(C)C)NC(=O)[C@H](CO)NC(=O)[C@H](Cc1cnc[nH]1)NC(=O)[C@H](C)NC(=O)[C@H](Cc1ccccc1)NC(=O)[C@H](CCC(=O)O)NC(=O)[C@H](CCCCN)NC(=O)[C@@H](NC(=O)CN)[C@@H](C)CC)C(C)C)C(=O)N[C@@H](CC(C)C)C(=O)N[C@@H](CC(N)=O)C(=O)N[C@@H](CCC(N)=O)C(=O)O` [GIKEFAHSLGKFGKAFVGGILNQ]: the MIC in assay [1] is ≥ 100 µM; in assay [2] it was > 100 µM; in assay [3], ≥ 100 µM; in assay [4], > 200 µM; in assay [5], > 200 µM; in [6] it was ≥ 100 µM. For the same compound, the minimum inhibitory concentration (MIC) in assay [7] was 12.5 µM (≈ 30.2 µg/mL); in assay [8] it was ≥ 50 µM; in assay [9] it was ≥ 50 µM.
With `CC[C@H](C)[C@H](NC(=O)[C@H](CC(N)=O)NC(=O)[C@@H](NC(=O)[C@H](C)N)C(C)C)C(=O)N1CCC[C@H]1C(=O)N[C@@H](Cc1ccccc1)C(=O)N[C@@H](CCCCN)C(=O)N[C@H](C(=O)N[C@@H](Cc1cnc[nH]1)C(=O)N[C@@H](Cc1ccccc1)C(=O)N[C@@H](CCCN=C(N)N)C(=O)N[C@H]1CSSC[C@@H](C(=O)O)NC(=O)[C@H](Cc2ccccc2)NC(=O)[C@H](C)NC(=O)[C@H](C)NC(=O)[C@H](CCCCN)NC1=O)C(C)C` [AVNIPFKVHFRCKAAFC], the MIC in assay [10] was ≥ 32 µM; in [4] it was 10.4 µM (≈ 20.2 µg/mL); in assay [5], 5.18 µM (≈ 10.1 µg/mL); in [11], ≥ 512 µM; in [12] it was 20.7 µM (≈ 40.4 µg/mL); in assay [13], 64 µM (≈ 125 µg/mL). The minimal inhibitory concentration (MIC) in [14] is > 512 µM; in assay [15], ≥ 256 µM; in [16], ≥ 512 µM; in assay [17], > 512 µM; in assay [18], ≥ 32 µM; in [19], 10.4 µM (≈ 20.2 µg/mL). In addition, the MIC in [20] is ≥ 64 µM; in assay [21] it was ≥ 32 µM.
For `CC(C)C[C@H](NC(=O)[C@H](CCCCN)NC(=O)[C@H](CCCN=C(N)N)NC(=O)[C@H](Cc1ccccc1)NC(=O)[C@H](Cc1ccccc1)NC(=O)[C@H](CCCCN)NC(=O)[C@H](CCCCN)NC(=O)[C@H](Cc1ccccc1)NC(=O)[C@H](CCCN=C(N)N)NC(=O)[C@H](CCCCN)NC(=O)[C@@H](NC(=O)[C@@H](N)CC(C)C)C(C)C)C(=O)N[C@@H](CCCCN)C(=O)N[C@@H](CCCCN)C(=O)N[C@@H](CO)C(=O)N[C@H](C(N)=O)C(C)C` [LVKRFKKFFRKLKKSV], the minimum inhibitory concentration (MIC) is 31.2 µM (≈ 64 µg/mL) in [22]; ≥ 62.4 µM in assay [23]; 31.2 µM (≈ 64 µg/mL) in [2]; 7.79 µM (≈ 16 µg/mL) in [24]; 31.2 µM (≈ 64 µg/mL) in [25]; 7.79 µM (≈ 16 µg/mL) in assay [4]. Also, the MIC in [5] was determined as 1.95 µM (≈ 4 µg/mL); in assay [26], 1.95 µM (≈ 4 µg/mL); in [27], 15.6 µM (≈ 32 µg/mL); in [28] it was 15.6 µM (≈ 32 µg/mL).
`CC[C@H](C)[C@H](NC(=O)CN)C(=O)NCC(=O)N[C@H](C(=O)N[C@@H](CCCCN)C(=O)N[C@H](C(=O)N[C@@H](CC(C)C)C(=O)NCC(=O)NCC(=O)N[C@H](C(=O)N[C@@H](CCCCN)C(=O)N[C@@H](C)C(=O)N[C@@H](C)C(=O)N[C@@H](CC(C)C)C(=O)N[C@@H](CCCCN)C(=O)NCC(=O)N[C@@H](C)C(=O)N[C@@H](CC(C)C)C(=O)N[C@@H](CCCCN)C(=O)N[C@@H](CCC(=O)O)C(=O)N[C@@H](CC(C)C)C(=O)N[C@@H](C)C(=O)N[C@@H](CO)C(=O)N[C@H](C(=O)N[C@@H](Cc1ccc(O)cc1)C(=O)N[C@H](C(=O)N[C@@H](CC(N)=O)C(N)=O)C(C)C)[C@@H](C)O)C(C)C)[C@@H](C)CC)[C@@H](C)O` [GIGTKILGGVKAALKGALKELASTYVN]: the minimum inhibitory concentration (MIC) in [29] is ≥ 37.4 µM; in assay [4], 7.03 µM (≈ 18.8 µg/mL); in [5], 3.52 µM (≈ 9.4 µg/mL); in assay [30] it was 28.1 µM (≈ 75 µg/mL).
With `CSCC[C@H](NC(=O)[C@H](C)NC(=O)[C@H](CC(C)C)NC(=O)[C@@H]1CCCN1C(=O)[C@H](CC(C)C)NC(=O)[C@@H](N)Cc1ccccc1)C(=O)N[C@@H](C)C(=O)N[C@@H](CC(C)C)C(=O)NCC(=O)N[C@@H](CCCCN)C(=O)N[C@@H](CC(C)C)C(=O)N[C@@H](CC(C)C)C(N)=O` [FLPLAMALGKLL], the MIC in assay [5] is 40 µM (≈ 51.4 µg/mL); in assay [31] it was ≥ 100 µM; in [8], ≥ 160 µM.
As for `CC(C)C[C@H](NC(=O)[C@@H](NC(=O)[C@H](CC(N)=O)NC(=O)[C@H](C)NC(=O)CNC(=O)[C@H](CC(C)C)NC(=O)[C@H](CCCN=C(N)N)NC(=O)[C@H](CC(C)C)NC(=O)[C@H](C)NC(=O)[C@H](CCCCN)NC(=O)CNC(=O)[C@H](CC(C)C)NC(=O)[C@H](CC(C)C)NC(=O)[C@H](CO)NC(=O)CNC(=O)[C@H](Cc1ccccc1)NC(=O)CN)C(C)C)C(N)=O` [GFGSLLGKALRLGANVL], the MIC in assay [32] worked out at 2.37 µM (≈ 4 µg/mL); in [2], 25 µM (≈ 42.1 µg/mL); in assay [33] it was 4.74 µM (≈ 8 µg/mL); in assay [34], 9.49 µM (≈ 16 µg/mL); in assay [35], 4.74 µM (≈ 8 µg/mL); in [36], 4.74 µM (≈ 8 µg/mL). Also, the MIC in assay [4] was 4.74 µM (≈ 8 µg/mL); in [37], 9.49 µM (≈ 16 µg/mL); in assay [38], ≥ 75.9 µM; in assay [39], 19 µM (≈ 32 µg/mL); in assay [40], 9.49 µM (≈ 16 µg/mL); in assay [41] it was 25 µM (≈ 42.1 µg/mL). Also, the figures for the minimal inhibitory concentration (MIC) in [42], in [43] and in [8] were 3 µM (≈ 5.06 µg/mL), ≥ 38 µM and 6 µM (≈ 10.1 µg/mL), respectively.
